Test results: US10590129B2 (Incozen Therapeutics Pvt. Ltd., priority 2010, dated 2020)

Experiments:
MKN-45 cells = test: Inhibition of MKN-45 proliferation (MTT); format: cell-based, human; conditions: Homo sapiens, MKN-45, MKN-45 proliferation
In short: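 Viability measured by MTT dye reduction on day 5 after compound addition on day 2 to MKN-45 gastric adenocarcinoma cells (high Met expression) seeded on day 1 in complete medium.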

SMILES	melting point [°C]	GI50 (MKN-45 cells) [nM]	inhibition at 0.1 µM (MKN-45 cells) [%]	inhibition at 1 µM (MKN-45 cells) [%]
CC(C)NC(=O)c1ccc(-c2ccc3nnn(Cc4ccc5ncccc5c4)c3n2)cc1 [Ex 116, N-Isopropyl-4-(3-(quinolin-6-ylmethyl)-3H-[1,2,3]triazolo[4,5-b]pyridin-5-yl)benzamide]	181 to 183		< 25	75 to 100
O=C(NCCC(=O)N1CCCCC1)c1ccc(-c2ccc3nnn(Cc4ccc5ncccc5c4)c3n2)cc1F [Ex 117, 2-Fluoro-N-(3-oxo-3-(piperidin-1-yl)propyl)-4-(3-(quinolin-6-ylmethyl)-3H-[1,2,3]triazolo[4,5-b]pyridin-5-yl)benzamide]	109 to 111		50 to 75	75 to 100
O=C(NCCC(=O)N1CCOCC1)c1ccc(-c2ccc3nnn(Cc4ccc5ncccc5c4)c3n2)cc1F [Ex 120, 2-Fluoro-N-(3-morpholino-3-oxopropyl)-4-(3-(quinolin-6-ylmethyl)-3H-[1,2,3]triazolo[4,5-b]pyridin-5-yl)benzamide]	212 to 215		75 to 100	25 to 50
O=C(NCCCN1CCCCC1)c1ccc(-c2ccc3nnn(Cc4ccc5ncccc5c4)c3n2)cc1F [Ex 124, 2-Fluoro-N-(3-(piperidin-1-yl)propyl)-4-(3-(quinolin-6-ylmethyl)-3H-[1,2,3]triazolo[4,5-b]pyridin-5-yl)benzamide]	135 to 137		75 to 100	50 to 75
c1cnc2ccc(Cn3cnc4ccc(-c5cn[nH]c5)nc43)cc2c1 [Ex 147, 6-((5-(1H-Pyrazol-4-yl)-3H-imidazo[4,5-b]pyridin-3-yl)methyl)quinoline]	214 to 216			< 25
Cn1cc(-c2ccc3ncn(Cc4ccc5ncccc5c4)c3n2)cn1 [Ex 148, 6-((5-(1-Methyl-1H-pyrazol-4-yl)-3H-imidazo[4,5-b]pyridin-3-yl)methyl)quinoline]	150 to 152			< 25
OCCn1cc(-c2ccc3ncn(Cc4ccc5ncccc5c4)c3n2)cn1 [Ex 150, 2-(4-(3-(Quinolin-6-ylmethyl)-3H-imidazo[4,5-b]pyridin-5-yl)-1H-pyrazol-1-yl)ethanol]	160 to 163			< 25
OCCNc1ccc2nnn(Cc3ccc4ncccc4c3)c2n1 [Ex 151, 2-(3-(Quinolin-6-ylmethyl)-3H-[1,2,3]triazolo[4,5-b]pyridin-5-ylamino)ethanol]	184 to 186			50 to 75
c1cnc2ccc(Cn3nnc4ccc(-n5ccnc5)nc43)cc2c1 [Ex 152, 6-((5-(1H-Imidazol-1-yl)-3H-[1,2,3]triazolo[4,5-b]pyridin-3-yl)methyl)quinoline]	227 to 230	150 to 500		
c1cnc2ccc(Cn3nnc4ccc(-c5cnn(C6CCNCC6)c5)nc43)cc2c1 [Ex 157, 6-((5-(1-(Piperidin-4-yl)-1H-pyrazol-4-yl)-3H-[1,2,3]triazolo[4,5-b]pyridin-3-yl)methyl)quinoline]	188 to 191	< 1000		
Cl.Fc1ccc(F)c(Cn2nnc3ccc(-c4cnn(C5CCNCC5)c4)nc32)c1Cl [Ex 167, 3-(2-Chloro-3,6-difluorobenzyl)-5-(1-(piperidin-4-yl)-1H-pyrazol-4-yl)-3H-[1,2,3]triazolo[4,5-b]pyridine hydrochloride]	85 to 87			25 to 50
COc1ncc(-c2ccc3nnn(Cc4ccc5ncccc5c4)c3n2)cn1 [Ex 183, 6-((5-(2-Methoxypyrimidin-5-yl)-3H-[1,2,3]triazolo[4,5-b]pyridin-3-yl)methyl)quinoline]	201 to 203		< 25	

The next lines start with results.

melting point [°C]	GI50 (MKN-45 cells) [nM]	SMILES	inhibition at 0.1 µM (MKN-45 cells) [%]	inhibition at 1 µM (MKN-45 cells) [%]
180 to 182		O=C(NO)c1ccc(-c2ccc3nnn(Cc4ccc5ncccc5c4)c3n2)cc1F [Ex 115, 2-Fluoro-N-hydroxy-4-(3-(quinolin-6-ylmethyl)-3H-[1,2,3]triazolo[4,5-b]pyridin-5-yl)benzamide]	< 25	75 to 100
193 to 196		CCNC(=O)Nc1ccc(-c2ccc3nnn(Cc4ccc5ncccc5c4)c3n2)cc1 [Ex 118, 1-Ethyl-3-(4-(3-(quinolin-6-ylmethyl)-3H-[1,2,3]triazolo[4,5-b]pyridin-5-yl)phenyl)urea]	< 25	75 to 100
286 to 288		O=C(Nc1nc[nH]n1)c1ccc(-c2ccc3nnn(Cc4ccc5ncccc5c4)c3n2)cc1Cl [Ex 122, 2-chloro-4-(3-(quinolin-6-ylmethyl)-3H-[1,2,3]triazolo[4,5-b]pyridin-5-yl)-N-(1H-1,2,4-triazol-3-yl)benzamide]	< 25	< 25
244 to 246		Nc1ncc(-c2ccc3nnn(Cc4ccc5ncccc5c4)c3n2)cn1 [Ex 180, 5-(3-(Quinolin-6-ylmethyl)-3H-[1,2,3]triazolo[4,5-b]pyridin-5-yl)pyrimidin-2-amine]	< 25	25 to 50
195 to 197		O=Cc1cc(-c2ccc3nnn(Cc4ccc5ncccc5c4)c3n2)cs1 [Ex 182, 4-(3-(Quinolin-6-ylmethyl)-3H-[1,2,3]triazolo[4,5-b]pyridin-5-yl)thiophene-2-carbaldehyde]	< 25	25 to 50
179 to 181		c1cnc2ccc(Cn3nnc4ccc(-c5ccc6c(c5)OCO6)nc43)cc2c1 [Ex 184, 6-((5-(Benzo[d][1,3]dioxol-5-yl)-3H-[1,2,3]triazolo[4,5-b]pyridin-3-yl)methyl)quinoline]	< 25	< 25
131 to 133		c1cnc2ccc(Cn3nnc4ccc(-c5ccc6c(c5)CCO6)nc43)cc2c1 [Ex 185, 6-((5-(2,3-Dihydrobenzofuran-5-yl)-3H-[1,2,3]triazolo[4,5-b]pyridin-3-yl)methyl) quinoline]	< 25	< 25
194 to 197		Nc1ccc(-c2ccc3nnn(Cc4ccc5ncccc5c4)c3n2)cn1 [Ex 186, 5-(3-(Quinolin-6-ylmethyl)-3H-[1,2,3]triazolo[4,5-b]pyridin-5-yl)pyridin-2-amine]	< 25	< 25
168 to 170	≤ 50	FCCn1cc(-c2ccc3nnn(Cc4ccc5ncccc5c4)c3n2)cn1 [Ex 187, 6-((5-(1-(2-fluoroethyl)-1H-pyrazol-4-yl)-3H-[1,2,3]triazolo[4,5-b]pyridin-3-yl)methyl)quinoline]	75 to 100	
188 to 191	50 to 150	OCc1cc(-c2ccc3nnn(Cc4ccc5ncccc5c4)c3n2)cs1 [Ex 188, (4-(3-(Quinolin-6-ylmethyl)-3H-[1,2,3]triazolo[4,5-b]pyridin-5-yl)thiophen-2-yl) methanol]	75 to 100	
211 to 213		CCc1n[nH]c2cc(-c3ccc4nnn(Cc5ccc6ncccc6c5)c4n3)ccc12 [Ex 191, 6-((5-(3-ethyl-1H-indazol-6-yl)-3H-[1,2,3]triazolo[4,5-b]pyridin-3-yl)methyl)quinoline]	25 to 50	25 to 50
